Experimental data published in patent US9206168B2, “(2-heteroarylamino) succinic acid derivatives” (Daiichi Sankyo Company, Limited, priority 2012, dated 2015).
Structures can show the parent of a compound that is named as a salt.

system: human liver cancer-derived cell line Hep3B; experiment: In vitro erythropoietin (EPO) induction activity in Hep3B cells (EPO ELISA of culture supernatant); format: cell-based; conditions: test compound 12.5 μM, 32 hours at 37° C., multiple of the EPO concentration in the control (0.5% DMSO)
Description: In vitro erythropoietin (EPO) induction activity of test compounds was evaluated using human liver cancer-derived cell line Hep3B (ATCC, Manassas, Va.). Hep3B cells were cultured overnight at 37° C. in Dulbecco's modified Eagle's medium (DMEM) in the presence of 10% fetal bovine serum (FBS) (24-well plate, 1.0×10^5 cells/well). After replacing with fresh DMEM (+10% FBS) containing a test compound dissolved in 0.5% dimethyl sulfoxide (DMSO) (prepared to a concentration of 12.5 μM) or a solvent control (0.5% DMSO), the cells were cultured for 32 hours at 37° C. After recovering the culture supernatant, EPO concentration in the culture supernatant was quantified using human EPO ELISA kits (StemCell Technologies).
The EPO concentration using a compound of each example as a test compound was expressed as a multiple of the EPO concentration in the control.

| Compound | fold induction at 12.5 µM |
| --- | --- |
| O=C(O)CCC(=O)Nc1ncc(C(=O)NCc2cccc(-c3ccccc3)c2)c(O)n1 [Example 6, 4-({4-Hydroxy-5-[(3-phenylphenyl)methylcarbamoyl]pyrimidin-2-yl}amino)-4-oxobutanoic acid] | 3.7 |
| O=C(O)CCC(=O)Nc1ncc(C(=O)NCc2cccc(C3CCCC3)c2)c(O)n1 [Example 17, 4-({5-[(3-Cyclopentylphenyl)methylcarbamoyl]-4-hydroxypyrimidin-2-yl}amino)-4-oxobutanoic acid] | 4.4 |
| O=C(O)CCC(=O)Nc1ncc(C(=O)NCc2ccc(Cl)cc2Cl)c(O)n1 [Example 1, 4-({5-[(2,4-Dichlorophenyl)methylcarbamoyl]-4-hydroxypyrimidin-2-yl}amino)-4-oxobutanoic acid] | 3.6 |
| O=C(O)CCC(=O)Nc1ncc(C(=O)NCc2ccc(F)cc2F)c(O)n1 [Example 2, 4-({5-[(2,4-Difluorophenyl)methylcarbamoyl]-4-hydroxypyrimidin-2-yl}amino)-4-oxobutanoic acid] | 7.9 |
| O=C(O)CCC(=O)Nc1ncc(C(=O)NCc2ccc(F)c(F)c2)c(O)n1 [Example 13, 4-({5-[(3,4-Difluorophenyl)methylcarbamoyl]-4-hydroxypyrimidin-2-yl}amino)-4-oxobutanoic acid] | 13 |
| O=C(O)CCC(=O)Nc1ncc(C(=O)NCc2ccc(F)cc2Cl)c(O)n1 [Example 3, 4-({5-[(2-Chloro-4-fluorophenyl)methylcarbamoyl]-4-hydroxypyrimidin-2-yl}amino)-4-oxobutanoic acid] | 9.5 |
| COc1ccc(C(NC(=O)c2cnc(NC(=O)CCC(=O)O)nc2O)C2CCOCC2)cn1 (stereo not drawn) [Example 9, 4-[(4-Hydroxy-5-{[(6-methoxypyridin-3-yl)(tetrahydro-2H-pyran-4-yl)methyl]carbamoyl}pyrimidin-2-yl)amino]-4-oxobutanoic acid trifluoroacetate] | 16 |
| COc1ccc(-c2ccc(C(C)(C)NC(=O)c3cnc(NC(=O)CCC(=O)O)nc3O)cn2)cc1 [Example 10, 4-{[4-Hydroxy-5-({1-[6-(4-methoxyphenyl)pyridin-3-yl]-1-methylethyl}carbamoyl)pyrimidin-2-yl]amino}-4-oxobutanoic acid trifluoroacetate] | 10 |
| O=C(O)CCC(=O)Nc1ncc(C(=O)NCc2ccc(F)c(-c3ccccc3)c2)c(O)n1 [Example 5, 4-({5-[(4-Fluoro-3-phenylphenyl)methylcarbamoyl]-4-hydroxypyrimidin-2-yl}amino)-4-oxobutanoic acid] | 6.3 |
| O=C(O)CCC(=O)Nc1ncc(C(=O)NCc2cccc(C(F)(F)F)c2)c(O)n1 [Example 11, 4-[(4-Hydroxy-5-{[3-(trifluoromethyl)phenyl]methylcarbamoyl}pyrimidin-2-yl)amino]-4-oxobutanoic acid] | 7.5 |
| O=C(O)CCC(=O)Nc1ncc(C(=O)NCc2cccc(F)c2)c(O)n1 [Example 12, 4-({5-[(3-Fluorophenyl)methylcarbamoyl]-4-hydroxypyrimidin-2-yl}amino)-4-oxobutanoic acid] | 7.2 |
| Cc1cccc(CNC(=O)c2cnc(NC(=O)CCC(=O)O)nc2O)c1 [Example 14, 4-{[4-Hydroxy-5-(m-tolylmethylcarbamoyl)pyrimidin-2-yl]amino}-4-oxobutanoic acid] | 3 |
